The results in this text go back to patent US20050148631A1, “Amino heterocyclyl inhibitors of 11-beta-hydroxy steroid dehydrogenase type 1” (AGOURON PHARMACEUTICALS, INC., priority 2003, published 2005).

Like-named read-outs stand apart in the source and are kept apart here.

The target in the assay is 11β-hsd-1 enzyme (Homo sapiens, UniProt P28845). Kind of assay: 11β-hsd-1 enzyme assay, percentage of inhibition (3H-cortisone to cortisol, radio-HPLC). The class given is biochemical. The settings on record: read-out: % inh @ 0.1 uM.
11β-hsd-1 enzyme, sequence (P28845 whole entry, species assumed): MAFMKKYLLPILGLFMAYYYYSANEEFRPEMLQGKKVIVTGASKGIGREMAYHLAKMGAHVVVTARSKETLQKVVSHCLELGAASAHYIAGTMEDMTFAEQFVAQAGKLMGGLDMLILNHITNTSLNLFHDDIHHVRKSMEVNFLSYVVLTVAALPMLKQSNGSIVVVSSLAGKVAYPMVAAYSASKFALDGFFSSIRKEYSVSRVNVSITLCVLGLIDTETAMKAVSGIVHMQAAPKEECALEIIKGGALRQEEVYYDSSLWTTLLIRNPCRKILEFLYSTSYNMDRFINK

As for `Cc1cccc(NS(=O)(=O)c2ccc(-c3ccc(S(C)(=O)=O)cc3)c(C)c2)n1` [Example 234], where the note is “compound at 0.1 uM”, the inhibition at 0.1 µM was found to be 57%.
`COc1ccc(F)cc1-c1ccc(S(=O)(=O)Nc2cccc(C)n2)cc1` [Example 147]: the inhibition at 0.1 µM (0.1 uM) came out at 29.5%.
Regarding `CCN(CC)C(=O)CCc1ccc(NS(=O)(=O)c2cccc(Cl)c2C)nc1` [Example 18], the inhibition at 0.1 µM (0.1 uM) came out at 34.6%.
Regarding `COc1ccc(-c2ccc(S(=O)(=O)Nc3cccc(C)n3)cc2C)cc1F` [Example 231], the inhibition at 0.1 µM (compound at 0.1 uM) came to 63%.
With `COc1ccc(C)nc1NS(=O)(=O)c1ccc(C(F)(F)F)cc1` [Example 89], where the note is “0.1 uM”, the inhibition at 0.1 µM worked out at 3.7%.
Still for that read-out and setting: to `Cc1cccc(NS(=O)(=O)c2ccc(-c3ccccc3Cl)cc2)n1` [Example 125] belongs 87.8%.
Regarding `Cc1cccc(NS(=O)(=O)N2CCN3CCC[C@H]3C2)n1` [Example 302], where the note is “compound at 0.1 uM”, the inhibition at 0.1 µM came to 18.1%.
In the case of `Cc1cc(CC(=O)N2CCCCC2)nc(NS(=O)(=O)c2cccc(Cl)c2C)c1` [Example 14], the inhibition at 0.1 µM (0.1 uM) is 25.9%.
Same read-out and setting: the value for `Cc1cccc(NS(=O)(=O)c2ccc(-c3cccc(C#N)c3)cc2)n1` [Example 132] was 61.7%; that for `O=S(=O)(Nc1cccc(CN2CCOCC2)n1)c1ccc(-c2ccccc2)cc1` [Example 64] was 8.9%; that for `CCOc1cccc(-c2ccc(S(=O)(=O)Nc3cccc(C)n3)cc2)c1` [Example 121] was 61.4%.
On the same count and under the same terms, the value for `Cc1ccc(S(=O)(=O)Nc2cccc(C)n2)cc1` [Example 49] was 82.6%.
`Cc1cccc(NS(=O)(=O)c2ccc(-c3ccc(C#N)cn3)cc2)n1` [Example 275]: for the setting “compound at 0.1 uM”, the inhibition at 0.1 µM worked out at 85.7%.
The same measure, in the same setting: the value for `O=S(=O)(Nc1ccc2ccccc2n1)c1ccc(-c2ccccn2)cc1` [Example 287, 4-Pyridin-2-yl-N-quinolin-2-yl-benzenesulfonamide] was 67.1%.
In the case of `Cc1cccc(NS(=O)(=O)c2sc(C)nc2C)n1` [Example 98], under “0.1 uM”, the inhibition at 0.1 µM was determined as 8.9%.
Same read-out and setting: to `Cc1cccc(NS(=O)(=O)c2ccc(C(C)(C)C)cc2)n1` [Example 52] belongs 32%.
Still for that read-out and setting: the value for `Cc1c(Cl)cccc1S(=O)(=O)Nc1cccc(CC(=O)N(CCC#N)C2CC2)n1` [Example 29] was 10.9%.
Consider `Cc1cccc(NS(=O)(=O)c2ccc(-c3ccccn3)cc2)n1` [Example 259, N-(6-Methyl-pyridin-2-yl)-4-pyridin-2-yl-benzenesulfonamide trifuoroacetate], for which the inhibition at 0.1 µM (compound at 0.1 uM) came out at 30%.
Consider `Cc1cccc(NS(=O)(=O)c2ccc(-c3cccc(OC(F)(F)F)c3)cc2)n1` [Example 153], for which, for the setting “0.1 uM”, the inhibition at 0.1 µM turned out to be 75.3%.
In the case of `COc1ccc(-c2ccc(S(=O)(=O)Nc3cccc(C)n3)cc2)c(C)c1` [Example 255], the inhibition at 0.1 µM (compound at 0.1 uM) is 64.6%.
On the same count and under the same terms, to `Cc1cccc(NS(=O)(=O)N2Cc3ccccc3C2)n1` [Example 298] belongs 13.3%.
As for `COC(=O)CCc1ccc(NS(=O)(=O)c2cccc(Cl)c2C)nc1` [Example 3], the inhibition at 0.1 µM (0.1 uM) turned out to be 19.6%.
`CCc1cccc(NS(=O)(=O)c2ccc(C(C)C)cc2)n1` [Example 76]: the inhibition at 0.1 µM (0.1 uM) was determined as 15.6%.
Regarding `Cc1cccc(NS(=O)(=O)c2ccc(-c3ccc4c(c3)OCCO4)c(C)c2)n1` [Example 245], for the setting “compound at 0.1 uM”, the inhibition at 0.1 µM worked out at 62%.
Still for that read-out and setting: to `COc1ccc(C)nc1NS(=O)(=O)c1ccc(-c2ccc(C)cc2)cc1` [Example 278] belongs 42.8%.
On to `Cc1cccc(NS(=O)(=O)c2ccc(Oc3ccccc3)cc2)n1` [Example 47], for which the inhibition at 0.1 µM (0.1 uM) is 21%.
Still for that read-out and setting: to `Cc1cc(C)nc(NS(=O)(=O)c2cccc(Cl)c2C)n1` [Example 58] belongs 4%.
Turning to `CCOc1ccc(-c2ccc(S(=O)(=O)Nc3cccc(C)n3)cc2C)cc1` [Example 229], where the note is “compound at 0.1 uM”, the inhibition at 0.1 µM was 9%.
Turning to `Cc1c(Cl)cccc1S(=O)(=O)Nc1cccc(CC(=O)N2CCC(F)(F)CC2)n1` [Example 32], the inhibition at 0.1 µM (0.1 uM) turned out to be 20.4%.
As for `Cc1cccc(NS(=O)(=O)c2ccc(-c3cn(C)cn3)cc2)n1` [Example 260], where the note is “compound at 0.1 uM”, the inhibition at 0.1 µM came out at 14.8%.
As for `Cc1cccc(NS(=O)(=O)Cc2cccc(Cl)c2)n1` [Example 67], where the note is “0.1 uM”, the inhibition at 0.1 µM stood at 49.6%.
As for `Cc1cccc(NS(=O)(=O)c2ccc(-c3ccc(OCc4ccccc4)cc3)cc2)n1` [Example 159], the inhibition at 0.1 µM (0.1 uM) is 90.4%.
The same measure, in the same setting: the value for `O=S(=O)(Nc1ccc2cc[nH]c2c1)c1ccc(-c2ccc(F)cc2)cc1` [Example 57] was 4.5%; that for `Cc1cc(C)c2ccc(NS(=O)(=O)c3ccc(-c4ccc(C#N)cc4)cc3)nc2n1` [Example 106] was 5.4%.
In the case of `Cc1cccc(NS(=O)(=O)c2ccc(-c3c(C)cccc3C)c(C)c2)n1` [Example 241], the inhibition at 0.1 µM (compound at 0.1 uM) was 64%.
As to `Cc1cccc(N(CCO)S(=O)(=O)c2ccc(-c3ccc(C#N)cc3)cc2)n1` [Example 266, 4′-Cyano-biphenyl-4-sulfonic acid (2-hydroxy-ethyl)-(6-methyl-pyridin-2-yl)-amide], the inhibition at 0.1 µM (compound at 0.1 uM) worked out at 9.6%.
As to `COC(=O)c1cccc(NS(=O)(=O)c2cccc(Cl)c2C)n1` [Example 4], the inhibition at 0.1 µM (0.1 uM) worked out at 23.9%.
Same read-out and setting: the value for `Cc1cccc(NS(=O)(=O)c2ccc(-c3ccccc3C)cc2)n1` [Example 126] was 77.6%.
Same read-out and setting: the value for `COc1ccc(S(=O)(=O)Nc2cccc(C)n2)cc1` [Example 81] was 23.4%.
On to `Cc1cccc(NS(=O)(=O)c2ccc(-c3ccc(CC(C)C)cc3)c(C)c2)n1` [Example 248], for which the inhibition at 0.1 µM (compound at 0.1 uM) turned out to be 57%.
In the case of `Cc1ccnc(NS(=O)(=O)c2ccc(-c3ccccc3)cc2)n1` [Example 59], the inhibition at 0.1 µM (0.1 uM) stood at 3.8%.
Same read-out and setting: to `Cc1c(Cl)cccc1S(=O)(=O)Nc1cccc(CCO)n1` [Example 114, 3-Chloro-N-[6-(2-hydroxy-ethyl)-pyridin-2-yl]-2-methyl-benzenesulfonamide] belongs 11.3%; to `Cc1cccc(NS(=O)(=O)c2cccc3ccccc23)n1` [Example 51], 10.2%.
Turning to `Cc1cccc(N(C)S(=O)(=O)c2ccc(-c3ccc(C#N)cc3)cc2)n1` [Example 110, 4′-Cyano-biphenyl-4-sulfonic acid methyl-(6-methyl-pyridin-2-yl)-amide], where the note is “0.1 uM”, the inhibition at 0.1 µM was 8.1%.
Still for that read-out and setting: the value for `Cc1cccc(NS(=O)(=O)c2ccc3oc4ccccc4c3c2)n1` [Example 63] was 32.7%.
As for `Cc1cccc(NS(=O)(=O)c2ccc(-c3cnco3)cc2)n1` [Example 264, N-(6-Methyl-pyridin-2-yl)-4-oxazol-5-yl-benzenesulfonamide], the inhibition at 0.1 µM (compound at 0.1 uM) came out at 39.7%.
The same measure, in the same setting: to `Cc1cccc(NS(=O)(=O)c2ccc(-c3ccc(F)c(F)c3)c(C)c2)n1` [Example 244] belongs 86%; to `Cc1cccc(NS(=O)(=O)c2ccc(-c3ccc(O)cc3)cc2)n1` [Example 252], 44%.
As to `Cc1c(Cl)cccc1S(=O)(=O)Nc1cccc(CC(=O)N(C)C(C)C)n1` [Example 30], the inhibition at 0.1 µM (0.1 uM) is 15.9%.
Same read-out and setting: the value for `O=S(=O)(Nc1ccc2nc[nH]c2c1)c1ccc(-c2ccc(F)cc2)cc1` [Example 60] was 31.9%; that for `COc1c(C)cc(-c2ccc(S(=O)(=O)Nc3cccc(C)n3)cc2)cc1C` [Example 156] was 65.6%.
Still for that read-out and setting: the value for `Cc1cc(C)nc(NS(=O)(=O)c2sc(-c3ccccc3)nc2C)c1` [Example 97] was 31.7%.
